From PubChem BioAssay AID328 (DTP/NCI, 2004)
“And” between values parts separate entries of the source, which are not always exact repeats. Equal entries are not always repeated. Inconclusive results and toxic doses are left out.

Test system: BDF1 mice, P388 leukemia ip, median survival T/C
Experiment: NCI In Vivo Anticancer Drug Screen. Data for tumor model P388 Leukemia (intraperitoneal) in B6D2F1 (BDF1) mice
Details: endpoint: median survival time, higher = longer survival
Summary of the method: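 Mice carrying the transplantable tumour receive compound or vehicle. Survival is followed in each arm, and the treated measure is divided by the vehicle measure.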

[1] = dose: 100.0 mg/kg/injection, schedule: Q01DX009 (ip), vehicle: saline with Tween-80
[2] = dose: 100.0 mg/kg/injection, schedule: Q04DX003 (ip), vehicle: saline with Tween-80
[3] = dose: 200.0 mg/kg/injection, schedule: Q01DX009 (ip), vehicle: saline with Tween-80
[4] = dose: 200.0 mg/kg/injection, schedule: Q04DX003 (ip), vehicle: saline with Tween-80
[5] = dose: 400.0 mg/kg/injection, schedule: Q01DX009 (ip), vehicle: saline with Tween-80
[6] = dose: 400.0 mg/kg/injection, schedule: Q04DX003 (ip), vehicle: saline with Tween-80
[7] = dose: 25.0 mg/kg/injection, schedule: Q01DX009 (ip), vehicle: Klucel (hydroxypropylcellulose) (HPC)
[8] = dose: 200.0 mg/kg/injection, schedule: Q01DX009 (ip), vehicle: Klucel (hydroxypropylcellulose) (HPC)
[9] = dose: 50.0 mg/kg/injection, schedule: Q01DX009 (ip), vehicle: Klucel (hydroxypropylcellulose) (HPC)
[10] = dose: 100.0 mg/kg/injection, schedule: Q01DX009 (ip), vehicle: Klucel (hydroxypropylcellulose) (HPC)
[11] = dose: 25.0 mg/kg/injection, schedule: Q04DX003 (ip), vehicle: saline
[12] = dose: 25.0 mg/kg/injection, schedule: Q01DX009 (ip), vehicle: saline with Tween-80
[13] = dose: 50.0 mg/kg/injection, schedule: Q01DX009 (ip), vehicle: saline with Tween-80

With c1ccc2c3c(ccc2c1)Sc1ccc2ccccc2c1N3 the T/C [1] was 90 % of control, the T/C [2] was 104 % of control and the T/C [3] was 90 % of control. For the same compound, the T/C [4] was 90 % of control, the T/C [5] was 90 % of control and the T/C [6] was 90 % of control.
In the case of CCOC(=O)CNC(=O)Sc1ccc(C(C)(C)C)cc1, the T/C [7] was 121 % of control and the T/C [8] was 108 % of control.
With CCOC(=O)/C=C(\C)SC1=CC(=O)C=CC1=O the T/C (dose: 100.0 mg/kg/injection, schedule: Q01DX001 (ip), vehicle: saline with Tween-80) was 106 % of control and the T/C (dose: 200.0 mg/kg/injection, schedule: Q01DX001 (ip), vehicle: saline with Tween-80) was 100 % of control.
With C=CCC(CC)C(=O)Cl (stereo not drawn) the T/C [1] was 109 % of control, the T/C [2] was 111 % of control and the T/C [3] was 100 % of control. For the same compound, the T/C [4] was 110 % of control, the T/C [5] was 100 % of control and the T/C [6] was 105 % of control and 110 % of control.
In the case of CSc1nnnn1-c1ccccc1, the T/C (dose: 16.5 mg/kg/injection, schedule: Q01DX009 (ip), vehicle: Klucel (hydroxypropylcellulose) (HPC)) was 104 % of control, the T/C [7] was 95 % of control and the T/C (dose: 37.5 mg/kg/injection, schedule: Q01DX009 (ip), vehicle: Klucel (hydroxypropylcellulose) (HPC)) was 104 % of control. The T/C [9] was 100 % of control and the T/C [10] was 100 % of control.
In the case of CCCCc1ccc(NC(=O)N(CCCl)N=O)cc1, the T/C (dose: 2.5 mg/kg/injection, schedule: Q01DX009 (ip), vehicle: Klucel (hydroxypropylcellulose) (HPC)) was 160 % of control, the T/C (dose: 2.5 mg/kg/injection, schedule: Q04DX003 (ip), vehicle: Klucel (hydroxypropylcellulose) (HPC)) was 175 % of control and the T/C (dose: 4.0 mg/kg/injection, schedule: Q01DX009 (ip), vehicle: Klucel (hydroxypropylcellulose) (HPC)) was 180 % of control. For the same compound, the T/C (dose: 4.0 mg/kg/injection, schedule: Q04DX003 (ip), vehicle: Klucel (hydroxypropylcellulose) (HPC)) was 191 % of control, the T/C (dose: 8.0 mg/kg/injection, schedule: Q01DX009 (ip), vehicle: Klucel (hydroxypropylcellulose) (HPC)) was 230 % of control and the T/C (dose: 8.0 mg/kg/injection, schedule: Q04DX003 (ip), vehicle: Klucel (hydroxypropylcellulose) (HPC)) was 208 % of control. For the same compound, the T/C (dose: 10.0 mg/kg/injection, schedule: Q04DX003 (ip), vehicle: other) was 172 % of control, the T/C (dose: 16.0 mg/kg/injection, schedule: Q01DX009 (ip), vehicle: Klucel (hydroxypropylcellulose) (HPC)) was 225 % of control and the T/C (dose: 16.0 mg/kg/injection, schedule: Q04DX003 (ip), vehicle: Klucel (hydroxypropylcellulose) (HPC)) was 233 % of control. For the same compound, the T/C (dose: 20.0 mg/kg/injection, schedule: Q04DX003 (ip), vehicle: other) was 172 % of control, the T/C (dose: 32.0 mg/kg/injection, schedule: Q01DX009 (ip), vehicle: Klucel (hydroxypropylcellulose) (HPC)) was 100 % of control and the T/C (dose: 66.0 mg/kg/injection, schedule: Q04DX003 (ip), vehicle: other) was 222 % of control. For the same compound, the T/C (dose: 99.0 mg/kg/injection, schedule: Q04DX003 (ip), vehicle: other) was 186 % of control, the T/C (dose: 150.0 mg/kg/injection, schedule: Q04DX003 (ip), vehicle: other) was 254 % of control and the T/C (dose: 225.0 mg/kg/injection, schedule: Q04DX003 (ip), vehicle: other) was 245 % of control.
With Nc1nc(C(F)(F)F)c(CCCCc2ccccc2)c(=O)[nH]1 the T/C (dose: 100.0 mg/kg/injection, schedule: Q01DX001 (ip), vehicle: Klucel (hydroxypropylcellulose) (HPC)) was 111 % of control, the T/C (dose: 200.0 mg/kg/injection, schedule: Q01DX001 (ip), vehicle: Klucel (hydroxypropylcellulose) (HPC)) was 117 % of control and the T/C (dose: 400.0 mg/kg/injection, schedule: Q01DX001 (ip), vehicle: Klucel (hydroxypropylcellulose) (HPC)) was 98 % of control.
With C1CN2CCC1C1(C2)SSC2(CN3CCC2CC3)S1 (stereo not drawn) the T/C (dose: 6.25 mg/kg/injection, schedule: Q04DX003 (ip), vehicle: saline) was 100 % of control, the T/C (dose: 12.5 mg/kg/injection, schedule: Q04DX003 (ip), vehicle: saline) was 105 % of control and the T/C [11] was 100 % of control.
In the case of CCCCCCCCNc1ccccc1, the T/C (dose: 100.0 mg/kg/injection, schedule: Q01DX001 (ip), vehicle: saline sonified) was 87 % of control and the T/C (dose: 400.0 mg/kg/injection, schedule: Q01DX001 (ip), vehicle: saline sonified) was 91 % of control.
For O=[N+]([O-])c1ccc2nnn(OC3CCCC3)c2c1, the T/C [2] was 98 % of control, the T/C [4] was 101 % of control and the T/C [6] was 88 % of control.
COc1ccccc1Cc1c(OC)cc(OC)c(C(=O)CCc2ccccc2)c1O was tested, and the T/C (dose: 0.5 mg/kg/injection, schedule: Q01DX009 (ip), vehicle: saline) was 103 % of control and the T/C (dose: 1.0 mg/kg/injection, schedule: Q01DX009 (ip), vehicle: saline) was 106 % of control.
For CCCNC1=C(C)C(=O)C2=C(C1=O)[C@H](COC(N)=O)[C@]1(OC)[C@@H]3N[C@@H]3CN21, the T/C (dose: 2.0 mg/kg/injection, schedule: Q01DX009 (ip), vehicle: saline sonified) was 205 % of control, the T/C (dose: 2.0 mg/kg/injection, schedule: Q01DX009 (ip), vehicle: saline) was 180 % of control and the T/C (dose: 3.0 mg/kg/injection, schedule: Q01DX009 (ip), vehicle: saline) was 200 % of control. The T/C (dose: 3.13 mg/kg/injection, schedule: Q01DX009 (ip), vehicle: saline sonified) was 150 % of control.
For C1CNCOC1, the T/C [11] was 105 % of control and the T/C (dose: 50.0 mg/kg/injection, schedule: Q04DX003 (ip), vehicle: saline) was 119 % of control.
With O=C1OC(c2ccccc2)=C/C1=C/c1ccccc1O the T/C [12] was 109 % of control, the T/C [13] was 91 % of control and the T/C (dose: 50.0 mg/kg/injection, schedule: Q04DX003 (ip), vehicle: saline with Tween-80) was 104 % of control. The T/C [1] was 97 % of control, the T/C [2] was 109 % of control and the T/C [3] was 97 % of control and 118 % of control. For the same compound, the T/C [4] was 116 % of control, the T/C (dose: 300.0 mg/kg/injection, schedule: Q01DX009 (ip), vehicle: saline with Tween-80) was 108 % of control and the T/C [5] was 113 % of control and 124 % of control. The T/C [6] was 114 % of control and the T/C (dose: 500.0 mg/kg/injection, schedule: Q01DX009 (ip), vehicle: saline with Tween-80) was 122 % of control.
N#Cc1ccc(C[n+]2cccc3c([N+](=O)[O-])cccc32)cc1 was tested, and the T/C (dose: 12.5 mg/kg/injection, schedule: Q01DX009 (ip), vehicle: saline with Tween-80) was 103 % of control, the T/C [12] was 108 % of control and the T/C [13] was 118 % of control.
For N#Cc1ccc(N)c(CSc2ccccc2)c1, the T/C (dose: 50.0 mg/kg/injection, schedule: Q04DX002 (ip), vehicle: saline with Tween-80) was 93 % of control, the T/C (dose: 100.0 mg/kg/injection, schedule: Q04DX002 (ip), vehicle: saline with Tween-80) was 90 % of control and the T/C (dose: 200.0 mg/kg/injection, schedule: Q04DX002 (ip), vehicle: saline with Tween-80) was 99 % of control.
In the case of CCCC#CCOCC1CO1 (stereo not drawn), the T/C [1] was 116 % of control, the T/C [2] was 100 % of control and the T/C [3] was 120 % of control. For the same compound, the T/C [4] was 100 % of control and the T/C [6] was 95 % of control.
For C[C@]12CC[C@H]3[C@@H](CC[C@]4(O)C[C@@H](O)CC[C@]34C=O)[C@@]1(O)CC[C@@H]2c1ccc(=O)oc1, the T/C (dose: 13.7 mg/kg/injection, schedule: Q01DX010 (ip), vehicle: carboxymethylcellulose (CMC)) was 95 % of control and the T/C (dose: 27.5 mg/kg/injection, schedule: Q01DX010 (ip), vehicle: carboxymethylcellulose (CMC)) was 100 % of control.
In the case of C#CCOC(=O)Nc1ccccc1Cl, the T/C [9] was 110 % of control, the T/C (dose: 50.0 mg/kg/injection, schedule: Q04DX003 (ip), vehicle: Klucel (hydroxypropylcellulose) (HPC)) was 100 % of control and the T/C [10] was 100 % of control. For the same compound, the T/C (dose: 100.0 mg/kg/injection, schedule: Q04DX003 (ip), vehicle: Klucel (hydroxypropylcellulose) (HPC)) was 109 % of control, the T/C [8] was 100 % of control and the T/C (dose: 200.0 mg/kg/injection, schedule: Q04DX003 (ip), vehicle: Klucel (hydroxypropylcellulose) (HPC)) was 109 % of control.
With CCOC(=O)C(C)(C)CN(CC(C)(C)C(=O)OCC)C(C)(C)C the T/C (dose: 50.0 mg/kg/injection, schedule: Q01DX001 (ip), vehicle: saline) was 110 % of control and the T/C (dose: 100.0 mg/kg/injection, schedule: Q01DX001 (ip), vehicle: saline) was 120 % of control.
For Cc1cc2nc(SCC(=O)O)[nH]c2cc1C, the T/C (dose: 100.0 mg/kg/injection, schedule: Q01DX009 (ip), vehicle: gum acacia) was 107 % of control, the T/C (dose: 100.0 mg/kg/injection, schedule: Q04DX003 (ip), vehicle: gum acacia) was 103 % of control and the T/C (dose: 200.0 mg/kg/injection, schedule: Q01DX009 (ip), vehicle: gum acacia) was 100 % of control. The T/C (dose: 200.0 mg/kg/injection, schedule: Q04DX003 (ip), vehicle: gum acacia) was 107 % of control, the T/C (dose: 400.0 mg/kg/injection, schedule: Q01DX009 (ip), vehicle: gum acacia) was 96 % of control and the T/C (dose: 400.0 mg/kg/injection, schedule: Q04DX003 (ip), vehicle: gum acacia) was 107 % of control.
